Data on eleven molecules can be found in patent US5434266A, “Monosaccharide analog-based glycosidase inhibitors” (priority 1993, dated 1995).

Read-outs that look alike come from different tables or passages of the source. Where only a bound is given, the exact number is not on record here.

For one assay, the system named is glucosidases. The conditions noted are these: cited from earlier work.
Another assay has as its target almond β-glucosidase. The experiment in a line: Glycosidase inhibition / KI determination, almond β-glucosidase. It counts as biochemical. The conditions noted are these: pH 5.0, read-out: KI β-Glu pH 5.0. The protocol:
(§1) pH for Enzyme Assays--Yeast e-glucosidase and green coffee bean α-galactosidase were assayed at pH 6.6. Almond β-glucosidase and jackbean α-mannosidase were assayed at pH 5.0. Bovine liver β-galactosidase was assayed at pH 7.0.
(§2) Working Enzyme Solutions--Typical enzyme concentrations in the assay buffer for inhibitor screening were as follows: yeast α-glucosidase, 10 μL of enzyme suspension in 2.00 mL pH 6.6 phosphate-citrate buffer; almond β-glucosidase, 25 μL of enzyme solution (0.4 mg solid enzyme in 70 μL pH 5.0 NaCl/NaOAc buffer) in 5.00 mL pH 5.0 NaCl/NaOAc buffer; jackbean α-mannosidase, 5-8 μL of enzyme suspension in 2.00 mL NaCl/NaOAc buffer; green coffee bean α galactosidase, 15 μL of enzyme suspension in 1.2 mL NaCl/NaOAc buffer; bovine liver β-galactosidase, 1.7 mg solid enzyme in 850 μL, NaCl/NaOAc buffer.
(§3) An acceptable concentration of enzyme, upon hydrolysis of the corresponding glycoside, should give an absorbance reading between 0.4 and 2.0 at 400 nm. A control assay was first performed to determine whether the enzyme concentration was acceptable. The assays involved addition of working enzyme solution (0.09 mL) and deionized water (0.18 mL) to buffer at the appropriate pH (0.09 mL, phosphate-citrate). The resulting solution was incubated at 37° C. for 5 minutes. Aliquots (0.1 mL) of this preincubation mixture was then added to three separate test tubes. Substrate (the corresponding p-nitrophenyl-D-glycoside, 0.1 mL, 10 mM in appropriate buffer), which had also been incubated at 37° C., was then added to each tube at thirty-second intervals. The hydrolyses were allowed to continue for 0.25 hours and then quenched by addition of glycine buffer (2.5 mL). The absorbance of the resulting solution was measure at 400 nm. Once this control run of the system gave an absorbance within 0.4-2.0, the potential inhibitors were assayed against this working enzyme solution at final inhibitor and substrate concentrations of 1 and 5 mM, respectively. In the inhibitor assays, deionized water was replaced by the inhibitor ([…] solution in deionized water). All inhibitors were tested in triplicate, with a control (by substituting the inhibitors with deionized water) and a standard.
(§4) Five substrate solutions (usually […]) and five inhibitor solutions (usually 0-200 μM) were prepared. To a 3-mL test tube were added buffer at the appropriate pH (0.28 mL, phosphate-citrate), working enzyme solution (0.28 mL) and inhibitor solution (0.56 mL). The solution was incubated at 37° C. for 5 minutes. Aliquots (0.1 mL) of this solution were then pipetted into ten separate test tubes. Substrate solution (0.1 mL) was then added to each tube at thirty-second intervals. Duplicate reactions were terminated by addition of glycine buffer (2.5 mL) at the end of 3, 6, 8, 10, and 12 minutes. The amound of released p-nitrophenolate was measured spectrophotometrically at 400 nm. The process was repeated for all combinations of inhibitor and substrate concentrations.
(§5) The velocities (V) of substrate hydrolysis at every combination of inhibitor [I] and substrate [S] concentrations were determined by plotting the absorbance values with respect to time and t]hen calculating the slopes of the lines. Double reciprocal plots of 1/V versus 1/[S] at different [I] were then generated. The slopes of each of these lines were then plotted against [I] and the data were fitted to a straight line. The [I]-intercept gave the enzyme-inhibitor dissociation constant. KI values were also calculated from Hanes-Woolf plots of [S]/V vs. [S] by replotttng the [S]/V intercepts versus [I] and ascertaining the [I] intercept. KI values in the Table represent an average of the two calculations.

The next assay addresses T1, jackbean α-mannosidase (Canavalia ensiformis, UniProt C0HJB3).
T1 construct: host or cells: jack bean
T1 sequence (C0HJB3 1-981): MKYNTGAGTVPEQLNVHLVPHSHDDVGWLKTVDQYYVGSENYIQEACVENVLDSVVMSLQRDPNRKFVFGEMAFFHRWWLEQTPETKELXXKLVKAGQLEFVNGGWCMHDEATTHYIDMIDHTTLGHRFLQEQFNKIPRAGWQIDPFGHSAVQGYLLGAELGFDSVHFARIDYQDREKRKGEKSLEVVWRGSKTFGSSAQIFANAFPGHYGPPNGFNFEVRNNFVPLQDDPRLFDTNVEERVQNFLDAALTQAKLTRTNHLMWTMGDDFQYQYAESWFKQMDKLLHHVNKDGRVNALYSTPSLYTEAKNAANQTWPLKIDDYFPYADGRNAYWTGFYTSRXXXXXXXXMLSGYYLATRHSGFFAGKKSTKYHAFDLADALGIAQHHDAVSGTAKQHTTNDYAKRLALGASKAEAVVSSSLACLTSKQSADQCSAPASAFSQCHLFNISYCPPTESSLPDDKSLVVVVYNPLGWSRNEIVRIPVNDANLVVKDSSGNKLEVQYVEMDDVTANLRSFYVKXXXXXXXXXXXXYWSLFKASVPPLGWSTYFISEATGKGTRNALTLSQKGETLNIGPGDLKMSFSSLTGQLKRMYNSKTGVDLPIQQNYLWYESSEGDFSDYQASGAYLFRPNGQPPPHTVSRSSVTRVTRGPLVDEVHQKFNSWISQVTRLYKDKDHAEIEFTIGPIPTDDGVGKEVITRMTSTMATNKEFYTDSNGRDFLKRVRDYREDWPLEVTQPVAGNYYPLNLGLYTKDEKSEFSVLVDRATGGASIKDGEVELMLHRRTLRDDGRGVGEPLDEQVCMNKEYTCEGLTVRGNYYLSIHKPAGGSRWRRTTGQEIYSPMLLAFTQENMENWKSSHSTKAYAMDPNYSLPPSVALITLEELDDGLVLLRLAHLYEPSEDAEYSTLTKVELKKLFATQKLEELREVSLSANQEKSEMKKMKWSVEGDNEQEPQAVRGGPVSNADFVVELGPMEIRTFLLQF
The experiment in a line: Glycosidase inhibition / KI determination, jackbean α-mannosidase. It counts as biochemical. Here is the method: as §1, §2, §3, §4, §5

Assay [1] concerns the target T2, bovine liver β-galactosidase (Bos taurus, UniProt F1MNT6).
T2 construct: from tissue; host or cells: bovine liver
T2 sequence (F1MNT6 1-469): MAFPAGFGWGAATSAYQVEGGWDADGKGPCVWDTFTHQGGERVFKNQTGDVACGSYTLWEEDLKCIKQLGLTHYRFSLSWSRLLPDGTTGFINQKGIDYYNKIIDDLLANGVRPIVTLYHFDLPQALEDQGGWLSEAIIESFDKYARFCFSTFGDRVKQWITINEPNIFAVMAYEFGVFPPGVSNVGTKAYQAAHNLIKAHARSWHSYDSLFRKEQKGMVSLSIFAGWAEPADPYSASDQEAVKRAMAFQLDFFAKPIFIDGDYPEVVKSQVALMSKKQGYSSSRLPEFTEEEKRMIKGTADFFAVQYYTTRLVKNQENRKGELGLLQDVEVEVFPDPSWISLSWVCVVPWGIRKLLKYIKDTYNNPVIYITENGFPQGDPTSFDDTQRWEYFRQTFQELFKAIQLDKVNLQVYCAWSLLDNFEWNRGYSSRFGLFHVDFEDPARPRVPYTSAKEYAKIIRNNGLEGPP
Description: Glycosidase inhibition / KI determination, bovine liver β-galactosidase. It counts as biochemical. Here is the method: as §1, §2, §3, §4
The velocities (V) of substrate hydrolysis at every combination of inhibitor [I] and substrate [S] concentrations were determined by plotting the absorbance values with respect to time and t]hen calculating the slopes of the lines. Double reciprocal plots of 1/V versus 1/[S] at different [I] were then generated. […] KI values were also calculated from Hanes-Woolf plots of [S]/V vs. [S] by replotttng the [S]/V intercepts versus [I] and ascertaining the [I] intercept. […]

Assay [2] has as its target green coffee bean α-galactosidase (Coffea arabica, UniProt Q42656). Description: Glycosidase inhibition, green coffee bean α-galactosidase. It counts as biochemical. Conditions: coffeebean galactosidase. The protocol: as §1, §2
(§6) An acceptable concentration of enzyme, upon hydrolysis of the corresponding glycoside, should give an absorbance reading between 0.4 and 2.0 at 400 nm. A control assay was first performed to determine whether the enzyme concentration was acceptable. The assays involved addition of working enzyme solution (0.09 mL) and deionized water (0.18 mL) to buffer at the appropriate pH (0.09 mL, phosphate-citrate). […] The absorbance of the resulting solution was measure at 400 nm. Once this control run of the system gave an absorbance within 0.4-2.0, the potential inhibitors were assayed against this working enzyme solution at final inhibitor and substrate concentrations of 1 and 5 mM, respectively. […]
(§7) Five substrate solutions (usually […]) and five inhibitor solutions (usually 0-200 μM) were prepared. […] The amound of released p-nitrophenolate was measured spectrophotometrically at 400 nm. […]
(§8) The velocities (V) of substrate hydrolysis at every combination of inhibitor [I] and substrate [S] concentrations were determined by plotting the absorbance values with respect to time and t]hen calculating the slopes of the lines. […] KI values were also calculated from Hanes-Woolf plots of [S]/V vs. [S] by replotttng the [S]/V intercepts versus [I] and ascertaining the [I] intercept. […]

The target in assay [3] is T3, A. niger amyloglucosidase (Aspergillus niger, UniProt P69328).
T3 construct: host or cells: Aspergillus niger
The experiment in a line: Glycosidase inhibition, A. niger amyloglucosidase. It counts as biochemical. Conditions: pH 5.0, read-out: amylo-Glu pH 5.0 (class). Here is the method:
as §3, §7, §8

The next assay concerns the target T4, yeast α-glucosidase (Saccharomyces cerevisiae, UniProt P53341).
T4 construct: host or cells: yeast
Description: Glycosidase inhibition / KI determination, yeast α-glucosidase. It counts as biochemical. The protocol:
as §1, §2, §6, §7, §8

Another assay has as its system mannosidases. Conditions: cited from earlier work.
The test system of the next assay is galactosidases. The conditions noted are these: cited from earlier work.
The next assay relates to HIV. The conditions noted are these: cited from earlier work.
Where [4] appears, read: pH 5.0, read-out: KI α-man pH 5.0.
Setting [5] is: pH 7.0, read-out: KI β-gal pH 7.0.
[6] abbreviates: pH 7.0, read-out: β-gal pH 7.0 (class).

T4 sequence (P53341 whole entry): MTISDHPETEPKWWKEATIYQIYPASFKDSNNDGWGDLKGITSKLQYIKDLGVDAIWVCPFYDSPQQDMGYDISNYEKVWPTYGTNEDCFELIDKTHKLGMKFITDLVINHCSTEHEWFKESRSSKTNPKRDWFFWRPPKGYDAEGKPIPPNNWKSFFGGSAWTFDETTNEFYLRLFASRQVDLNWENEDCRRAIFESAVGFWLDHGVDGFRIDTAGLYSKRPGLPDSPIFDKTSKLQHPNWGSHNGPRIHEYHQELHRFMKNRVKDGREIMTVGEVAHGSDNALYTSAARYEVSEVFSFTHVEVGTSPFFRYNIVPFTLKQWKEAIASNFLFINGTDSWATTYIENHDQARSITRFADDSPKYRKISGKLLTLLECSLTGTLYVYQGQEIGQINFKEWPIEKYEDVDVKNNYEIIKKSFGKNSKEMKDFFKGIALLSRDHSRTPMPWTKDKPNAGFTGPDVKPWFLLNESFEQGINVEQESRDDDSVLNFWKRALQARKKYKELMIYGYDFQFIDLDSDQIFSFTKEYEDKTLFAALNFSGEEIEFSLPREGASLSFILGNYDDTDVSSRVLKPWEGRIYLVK
green coffee bean α-galactosidase, sequence (Q42656 16-378): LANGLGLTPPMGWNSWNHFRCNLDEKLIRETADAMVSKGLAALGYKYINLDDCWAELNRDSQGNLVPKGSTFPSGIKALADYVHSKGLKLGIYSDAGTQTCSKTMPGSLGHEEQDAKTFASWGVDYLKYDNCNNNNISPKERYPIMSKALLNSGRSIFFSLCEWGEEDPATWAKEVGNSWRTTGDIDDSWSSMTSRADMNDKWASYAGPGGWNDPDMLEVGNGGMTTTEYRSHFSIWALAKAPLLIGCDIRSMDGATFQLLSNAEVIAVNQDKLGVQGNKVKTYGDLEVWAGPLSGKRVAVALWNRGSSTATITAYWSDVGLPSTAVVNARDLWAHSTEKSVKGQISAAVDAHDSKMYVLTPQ
T3 sequence (P69328 25-640): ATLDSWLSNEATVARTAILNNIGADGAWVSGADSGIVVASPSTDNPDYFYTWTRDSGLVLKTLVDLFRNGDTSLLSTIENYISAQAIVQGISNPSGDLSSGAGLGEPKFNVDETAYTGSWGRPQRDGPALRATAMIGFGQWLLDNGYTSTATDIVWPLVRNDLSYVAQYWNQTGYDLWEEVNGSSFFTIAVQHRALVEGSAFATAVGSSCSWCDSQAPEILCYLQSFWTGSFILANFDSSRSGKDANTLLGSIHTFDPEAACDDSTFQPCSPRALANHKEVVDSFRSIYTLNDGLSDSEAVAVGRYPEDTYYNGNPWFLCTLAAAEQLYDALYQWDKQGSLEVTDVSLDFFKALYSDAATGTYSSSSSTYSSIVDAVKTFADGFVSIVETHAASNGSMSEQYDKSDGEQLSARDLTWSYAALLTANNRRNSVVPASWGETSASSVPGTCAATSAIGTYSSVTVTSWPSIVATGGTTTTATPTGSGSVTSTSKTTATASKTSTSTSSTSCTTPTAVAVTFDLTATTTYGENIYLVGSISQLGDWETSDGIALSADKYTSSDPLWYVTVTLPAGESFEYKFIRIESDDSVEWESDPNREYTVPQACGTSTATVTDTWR

Turning to `NC1O[C@H](CO)[C@@H](O)[C@H](O)[C@H]1O` (stereo partly drawn) [glucosylamine], in the assay with glucosidases (α- and β-glucosidases), the “inhibition of α- and β-glucosidases” value was “inhibits both α- and β-glucosidases”.

Turning to `NNC1=N[C@H](CO)[C@@H](O)[C@H](O)[C@@H]1O` [Compound 9, D-Mannoamidrazone], the Ki at almond β-glucosidase stood at 205 ± 25 µM; on jackbean α-mannosidase (setting [4]), 0.166 ± 0.013 µM; in [1] (setting [5]), 57 ± 2.5 µM.

With `CN(C)C1=N[C@H](CO)[C@@H](O)[C@H](O)[C@H]1O` [Compound 2, D-Gluco-N,N-Dimethylamidine], the Ki was 83 µM on almond β-glucosidase; less than 100 µM on jackbean α-mannosidase (pH 5.0, read-out: α-man pH 5.0 (class)); less than 100 µM in assay [1] (setting [6]); more than 1000 µM in assay [3]. The “α-gal pH 6.6 (class)” value in assay [2] is “none”. Also, the “α-Glu pH 6.6 (class)” value at yeast α-glucosidase is “none”.

As to `NNC1=N[C@H](CO)[C@@H](O)[C@H](O)[C@H]1O` [Compound 8, D-Glucoamidrazone], the Ki at almond β-glucosidase worked out at 8.4 ± 0.9 µM; at jackbean α-mannosidase (setting [4]) it was 6.5 ± 3 µM; in assay [1] (setting [5]), 19 µM.

For the molecule `NC1=N[C@H](CO)[C@@H](O)[C@H](O)[C@H]1O` [Compound 1, D-Glucoamidine], the Ki is 8 µM at almond β-glucosidase, 9 µM at jackbean α-mannosidase (setting [4]), less than 100 µM in [1] (setting [6]) and more than 1000 µM in assay [3]. In addition, the “α-gal pH 6.6 (class)” value in assay [2] is reported as “none”. In addition, the “α-Glu pH 6.6 (class)” value on yeast α-glucosidase was “none”.

As to `OC[C@H]1NC(O)[C@H](O)[C@@H](O)[C@@H]1O` (stereo partly drawn) [Nojirimycin, nojirimycin, reference compound], the Ki is 380 µM on almond β-glucosidase; more than 1000 µM in [1] (setting [6]); more than 1000 µM in [3]; 13 µM on yeast α-glucosidase (pH 6.6, read-out: KI α-Glu pH 6.6). In addition, in [2], the “α-gal pH 6.6 (class)” value was “mod-none”. For the same molecule, the “α-man pH 5.0 (class)” value at jackbean α-mannosidase is on record as “moderate”. In addition, the glucosidase inhibition entry in the assay on glucosidases is on record as “potent glucosidase inhibitors”.

On to `OC[C@H]1NC[C@@H](O)[C@@H](O)[C@@H]1O` [C, 1-deoxymannojirimycin], for which the mannosidase inhibition entry with mannosidases was “inhibits mannosidases”.

Take `OC[C@H]1N=C(NO)[C@H](O)[C@@H](O)[C@@H]1O` [Compound 13, D-Glucoamidoxime]: the Ki at almond β-glucosidase came out at 13.8 ± 3 µM; on jackbean α-mannosidase (setting [4]) it was 10 ± 2 µM.

On to `OC[C@H]1N=C(NO)[C@@H](O)[C@@H](O)[C@@H]1O` [Compound 15, D-Mannoamidoxime], for which the Ki at jackbean α-mannosidase (setting [4]) amounted to 2 ± 0.1 µM.

For `OC[C@H]1NC(O)[C@H](O)[C@@H](O)[C@H]1O` (stereo partly drawn) [D, galactostatin], in the assay on galactosidases, the galactosidase inhibition result was “inhibits galactosidases”.

Turning to `OC[C@H]1NC[C@H](O)[C@@H](O)[C@@H]1O` [Compound B, 1-deoxynojirimycin], in the assay on HIV, the “effect on infectivity of HIV” value is reported as “interfere with the infectivity of HIV”. Further, the glucosidase inhibition result in the assay on glucosidases is listed as “potent glucosidase inhibitors”.
